Earlier results as cited in patent US9248112B2, “Hemodialysis and peritoneal dialysis solutions comprising one or more creatine compounds” (CREARENE LTD., priority 2009, dated 2016).
Read-outs that look alike come from different tables or passages of the source.

Tests used:
[1] = not given; remark: listed apart in the source
[2] = target: T1, creatine transporter protein (CrT) (Homo sapiens, UniProt P48029); conditions: CrT in the plasma membrane
T1 sequence (P48029 1-635): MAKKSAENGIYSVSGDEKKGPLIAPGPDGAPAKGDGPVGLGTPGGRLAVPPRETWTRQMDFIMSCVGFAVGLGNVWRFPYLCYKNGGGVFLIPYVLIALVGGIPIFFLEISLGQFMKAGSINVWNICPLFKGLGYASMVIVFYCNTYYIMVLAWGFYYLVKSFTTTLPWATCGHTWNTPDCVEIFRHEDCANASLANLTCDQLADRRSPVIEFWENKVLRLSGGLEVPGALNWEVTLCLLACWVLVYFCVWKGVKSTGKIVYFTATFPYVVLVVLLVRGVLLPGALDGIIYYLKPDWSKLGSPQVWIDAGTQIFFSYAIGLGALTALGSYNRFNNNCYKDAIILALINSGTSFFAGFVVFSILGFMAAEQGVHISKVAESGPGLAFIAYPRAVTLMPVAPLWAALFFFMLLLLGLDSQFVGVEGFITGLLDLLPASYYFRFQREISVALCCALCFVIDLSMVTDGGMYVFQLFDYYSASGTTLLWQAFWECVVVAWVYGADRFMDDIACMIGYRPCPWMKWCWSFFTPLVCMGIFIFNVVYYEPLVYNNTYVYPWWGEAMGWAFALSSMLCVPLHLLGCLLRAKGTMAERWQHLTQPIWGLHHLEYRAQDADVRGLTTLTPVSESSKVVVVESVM

[3] = peritoneal dialysis solution, 37° C.
homocysteine [4] = tested on: homocysteine
homocysteine [5] = conditions: animal model
[6] = not given; remark: listed apart in the source
[7] = adults, clinical studies

Question: With CN(CC(=O)O)C(=N)N.O [creatine monohydrate] as the compound, how does the “stability in acidic aqueous solutions” value (acidic aqueous solutions, temperatures over 60° C.) read?
Answer: some instability

Question: What about the “storage stability in solution” value (neutral pH, cooled) of the same compound?
Answer: can be stored for thirty days without losses

Question: And the “decrease in muscle cramps” value ([1]; 12 g orally 5 minutes before hemodialysis, four week treatment)?
Answer: 60%

Question: And the “serum creatinin after treatment” value ([1]; after four week treatment period, 12 g orally before hemodialysis)?
Answer: 12.4 mg/dL

Question: What about the “serum creatinin before treatment” value ([1]; start of four week treatment period) of the same compound?
Answer: 10.7 mg/dL

Question: For CN(CC(=O)O)C(=N)N [creatine], which Km [2] is on record?
Answer: 25 to 30 µM

Question: What about the “concentration near the saturation limit of creatine” value [3] of the same compound?
Answer: 24-25 g per liter

Question: What about the homocystein levels (homocysteine [4]; 2 g/day, additionally vitamin B supplemented subjects) of the same compound?
Answer: no such effects were seen

Question: What about the homocystein levels (homocysteine [4]; humans, approximately 5 g Cr/day) of the same compound?
Answer: reduction of homocystein levels

Question: What about the “serum levels of homocysteine” value (homocysteine [5]) of the same compound?
Answer: reduce serum levels

Question: And the serum creatine concentration ([6]; after a single oral dose of 5-20 g of creatine)?
Answer: 1-2 mM/l

Question: And the “time to reach maximal levels in the blood stream” value ([6]; ingested (oral) creatine)?
Answer: two to four

Question: And the safe daily intake [7]?
Answer: up to 20 g daily
